Data published in PMC5500888, “Structural insights into the mechanism of the membrane integral N-acyltransferase step in bacterial lipoprotein synthesis” (Nature Communications, 2017).

Experiments:
LntPae = biological target: T1, LntPae (Pseudomonas aeruginosa, UniProt Q9ZI86); test: SDS-PAGE band shift of FSL-1-biotin with western blot; format: biochemical; conditions: acyl donor 500 uM; co-substrate FSL-1-biotin 2.5-5 uM; 20 nM enzyme; 0.1% Triton X-100; pH 7.2 or 6.5; 37 C
T1 construct: gene lnt; full-length membrane enzyme, N-terminal thrombin-cleavable His6-tag (pET28a, synthetic gene), expressed in E. coli C41(DE3), purified in LMNG; tag cleavage not described
T1 sequence (Q9ZI86 1-511): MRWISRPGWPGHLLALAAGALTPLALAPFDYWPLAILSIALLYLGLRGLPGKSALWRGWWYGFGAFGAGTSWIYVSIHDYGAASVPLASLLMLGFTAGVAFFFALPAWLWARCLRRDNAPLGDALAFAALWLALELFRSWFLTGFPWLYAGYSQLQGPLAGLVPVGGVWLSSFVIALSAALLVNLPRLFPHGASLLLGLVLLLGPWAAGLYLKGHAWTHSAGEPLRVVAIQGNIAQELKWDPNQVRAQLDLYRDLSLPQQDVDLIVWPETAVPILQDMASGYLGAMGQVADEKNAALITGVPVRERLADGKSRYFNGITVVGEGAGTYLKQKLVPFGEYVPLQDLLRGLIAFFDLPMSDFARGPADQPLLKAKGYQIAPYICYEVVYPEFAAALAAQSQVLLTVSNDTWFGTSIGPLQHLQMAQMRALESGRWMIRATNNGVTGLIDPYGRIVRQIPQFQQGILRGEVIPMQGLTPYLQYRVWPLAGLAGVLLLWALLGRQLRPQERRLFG

LntEco = biological target: T2, LntEco (Escherichia coli, UniProt P23930); test: TLC with fluorescence of lyso-NBD-PE formed; format: biochemical; conditions: labelled compound; NBD-PE 500 uM; co-substrate FSL-1 150 uM; 8 uM enzyme; 50 mM Tris-HCl pH 7.5, 150 mM NaCl, 1 mM TCEP, 0.02% LMNG; 37 C
T2 construct: gene lnt; full-length membrane enzyme, N-terminal thrombin-cleavable His6-tag (pET28a, synthetic gene), expressed in E. coli C43(DE3), purified in LMNG; tag cleavage not described

Row | SMILES | SDS-PAGE band shift of FSL-1-biotin with western blot (LntPae) | TLC with fluorescence of lyso-NBD-PE formed (LntEco)
1 | CCCCCCCC/C=C\CCCCCCCC(=O)OC[C@H](COP(=O)(O)OCC(O)CO)OC(=O)CCCCCCC/C=C\CCCCCCCC (some centres unmarked) [DOPG] | When DOPE was replaced with DOPG or DOPC, the product was formed much less efficiently | 
2 | CCCCCCCC/C=C\CCCCCCCC(=O)OC[C@H](COP(=O)(O)OCCN)OC(=O)CCCCCCCCCCCNc1ccc([N+](=O)[O-])c2nonc12 [NBD-PE] |  | Time course of lyso-PE production catalysed by LntEco
